Laboratory results published in US20220073470A1, “INHIBITORS OF CGAS ACTIVITY AS THERAPEUTIC AGENTS” (BELLBROOK LABS, LLC, priority 2019, published 2022).
In brackets after ≈: the same amount, converted by molar mass. Read-outs that look alike come from different tables or passages of the source.

Tests used:
full-length human cGAS = target: T1, full-length human cGAS (Homo sapiens, UniProt Q8N884); experiment: cGAS enzymatic assay (FP readout), inhibition of cGAS; format: biochemical
T1 construct: The cGAS assay was used to screen 100,000 compounds with full-length human cGAS; 6xHis; made in house
T1 sequence (Q8N884 whole entry): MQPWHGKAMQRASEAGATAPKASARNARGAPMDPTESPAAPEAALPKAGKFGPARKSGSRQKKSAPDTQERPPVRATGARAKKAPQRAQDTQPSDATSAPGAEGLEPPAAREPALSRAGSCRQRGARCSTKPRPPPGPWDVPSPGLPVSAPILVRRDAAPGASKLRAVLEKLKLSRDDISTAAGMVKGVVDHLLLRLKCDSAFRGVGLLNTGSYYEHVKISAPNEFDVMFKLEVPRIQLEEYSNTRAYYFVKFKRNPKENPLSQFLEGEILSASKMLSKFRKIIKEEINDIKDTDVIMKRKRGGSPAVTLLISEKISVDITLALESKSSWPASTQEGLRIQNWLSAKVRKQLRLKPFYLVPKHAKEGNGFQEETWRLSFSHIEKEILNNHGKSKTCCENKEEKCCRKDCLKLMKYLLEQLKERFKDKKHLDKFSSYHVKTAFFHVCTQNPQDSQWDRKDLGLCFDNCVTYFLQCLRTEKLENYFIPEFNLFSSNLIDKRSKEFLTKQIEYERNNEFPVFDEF
Method: Some exemplary compounds of the disclosure were tested for inhibition of cGAS (30 nM). The results are provided in Table 1 where “A” indicates an IC50 of less than 100 nM, “B” indicates an IC50 of greater than 100 nM and less than 500 nM, “C” indicates an IC50 of greater than 500 nM and less than 1 μM, “D” indicates an IC50 of greater than 1 μM and less than 10 μM, and “E” indicates an IC50 of greater than 10 μM.
A homogenous cGAS enzymatic assay was developed with fluorescence polarization (FP) and time-resolved Forster resonance energy transfer (TR-FRET) readouts (FIG. 2A-D). The cGAS assay was used to screen 100,000 compounds with full-length human cGAS (FIG. 2E), resulting in the identification of novel chemotypes, two of which are further developed in a structure-driven hit-to-lead study (Table 3, below). The assay performance was robust, as indicated by respective Z and Z′ values of 0.59 and 0.63 in the screen; compounds with polarization values greater than three SDs from the mean were considered hits; a scatterplot from 10 plates (3,200 compounds) is shown in FIG. 2D.
(§1) Potency and MOA studies, including Mn^2+ sensitivity, are performed using the cGAS enzymatic assay. Dose response experiments are used to determine IC50 values under basal conditions (5 mM MgCl2, 100 μM ATP/GTP), and with the addition of physiological levels of Mn (0.2 mM) using human and mouse cGAS. Ligand optimization is driven by potency with the human enzyme; potency with mouse cGAS informs selection of an appropriate disease model for efficacy studies. Competition with ATP and GTP is assessed by comparing basal IC50 values to those in the presence of saturating ATP or GTP, and subsequently confirmed by measuring velocity vs. substrate at varying ATP or GTP levels. Inhibitor residence times (1/koff) are used as a key parameter for prioritizing compounds and driving SAR, because a longer residence time often results from an allosteric mechanism, and can also correlate with improved cellular activity. The cGAS enzymatic assay is used with the jump dilution method to measure residence times (inhibitor dissociation rates), as described for kinases using the very similar ADP assay. Biophysical methods, including SPR and TSAn, are used as orthologous methods for residence time measurements and kd estimates.

Mouse cGAS = Mouse cGAS (Mus musculus, UniProt Q8C6L5); experiment: cGAS enzymatic assay with mouse cGAS; format: biochemical
Chain of Mouse cGAS (Q8C6L5 whole entry): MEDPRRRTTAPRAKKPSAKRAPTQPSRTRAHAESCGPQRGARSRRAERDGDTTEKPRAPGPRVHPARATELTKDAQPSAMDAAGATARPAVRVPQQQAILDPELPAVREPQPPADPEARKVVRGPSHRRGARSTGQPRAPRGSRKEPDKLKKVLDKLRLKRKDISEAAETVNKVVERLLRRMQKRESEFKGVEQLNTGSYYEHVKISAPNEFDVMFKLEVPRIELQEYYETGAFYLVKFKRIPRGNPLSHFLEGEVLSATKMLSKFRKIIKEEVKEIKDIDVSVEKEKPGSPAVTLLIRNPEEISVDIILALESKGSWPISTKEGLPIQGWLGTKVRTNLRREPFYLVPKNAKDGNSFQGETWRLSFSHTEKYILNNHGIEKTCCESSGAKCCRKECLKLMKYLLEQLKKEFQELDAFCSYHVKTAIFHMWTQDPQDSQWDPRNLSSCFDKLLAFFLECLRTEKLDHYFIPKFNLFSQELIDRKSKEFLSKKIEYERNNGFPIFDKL
Method: as §1

[1] = Solubility Ksol in PBS pH 7.4; format: physicochemical; conditions: pH 7.4, aqueous buffer, kinetic from dmso stock
[2] = Human microsomal stability (NADPH); format: in vitro ADME; conditions: liver microsomes, read-out: Human MS Stability (NADPH) t1/2
Method: (§2) Compounds are tested in Caco-2 and MDR1-MDCK permeability assays to provide a measure of intestinal absorption, blood-brain-permeability and efflux by P-glycoprotein (P-gp), a frequent obstacle to effective CNS delivery. CNS drugs are associated with high passive membrane permeability (Papp>1×10^−6 cm/sec) and have low efflux ratios (Papp(B−A)/Papp(A−B)<2.5). Metabolic stability is tested using mouse and human liver microsomes incubated with NADPH for CYP-dependent metabolism and with UDPGA for glucuronidation. Compounds are tested for pharmacokinetics and brain penetration in mice using oral, intravenous and intraperitoneal administration.

[3] = Mouse microsomal stability (NADPH); format: in vitro ADME; conditions: liver microsomes, read-out: Mouse MS Stability (NADPH) t1/2
Method: as §2

[4] = test system: Madin-Darby Canine Kidney cells-Multi Drug Resistance pump; experiment: MDCK-MDR permeability and efflux; format: in vitro ADME
Method: as §2

P-glycoprotein (MDR1) = experiment: MDCK-MDR permeability and efflux; format: in vitro ADME, Canine; conditions: dog, MDCK-MDR1
Method: as §2

[5] = test system: kinases (Abl1, PKA, TBK1), GTPase (Rac1), phosphodiesterase (PDE4A), ENPP1; experiment: Selectivity panel of nucleotide-utilizing enzymes; format: biochemical
Method: The compounds of formula (I) of the disclosure were tested for improved potency and other drug-like properties.
A panel of nucleotide-utilizing enzymes that included kinases (Abl1, PKA, TBK1—which transduces cGAS/STING signals, see FIG. 4) a GTPase (Rac1), a phosphodiesterase (PDE4A), and ENPP1, a nucleotidase that degrades cGAMP, was used preliminarily. cGAS assays were used to perform dose response measurements with cGAS inhibitors. In addition to these enzymes, inhibitors are tested with three other members of the oligoadenylate synthases (OAS), nucleic acid sensors that activate innate immunity via production of short, 2′-5′ oligoadenylate second messengers. Methods for expression and purification of the human and/or porcine enzymes in E. coli or baculovirus-infected insect cells have been developed as well as a simple, absorbance-based assay using commercially available pyrophosphate kit. In addition, an FP-based assay (competitive displacement of a fluor-cGAMP tracer) is developed to test compounds as ligands for STING.

[6] = test system: DNA-stimulated IFNβ expression; experiment: IFNβ ELISA, DNA-stimulated IFNβ expression; format: cell-based
Method: (§3) FIG. 5A illustrates activity of IFNβ expression of compound 14 in three different experiments. FIG. 5B illustrates the ISG mRNA expression of compound 14 in THP1-dual cells. Compound 14 in concentration of 200 μM was evaluated after 24 hours.
(§4) Cellular activity of several compounds of formula (I) was assessed in […]. For example, FIG. 5A illustrates activity of IFNβ expression, and FIG. 5B illustrates the ISG mRNA expression of compound 14 in THP1-dual cells.

[7] = test system: IRF3-driven transcription; experiment: IRF3-Luc reporter, THP1 dual-cell reporter system; format: cell-based; conditions: Homo sapiens, THP-1; read-out: Cellular IRF3-Luc
Source text: (§5) FIG. 4 includes a schematic showing the THP1 dual-cell reporter system: secreted luciferase reports on IRF3-driven transcription; secreted alkaline phosphatase reports on NFκB-driven transcription, both downstream of cGAS/STING.

[8] = test system: NFκB-driven transcription; experiment: NFκB-SEAP reporter, THP1 dual-cell reporter system; format: cell-based; conditions: Homo sapiens, THP-1; read-out: Cellular NFκB-SEAP
Source text: as §5

ISG mRNA expression = ISG mRNA expression in THP1-dual cells; format: cell-based
Method: as §3, §4

cGAS = cGAS (Homo sapiens, UniProt Q8N884); experiment: SPR binding to cGAS; conditions: enzymatic analysis and biophysical binding studies (SPR, TSA)
Chain of cGAS (Q8N884 whole entry): as the sequence (Q8N884 whole entry) above
Source text: Following confirmation of hits at three concentrations and removal of compounds with visually evident reactivity or metabolic liabilities, non-stoichiometric inhibitors, aggregators, DNA intercalators and redox-active compounds were triaged using established assays. Initial SAR based on more than 100 commercially available analogs provided additional confidence that the compounds of the disclosure were bonafide inhibitors, and informed potential scaffold hops and toleration for modifications. The compounds of formula (I) of the disclosure were selected for advancement into a hit-to-lead study. […] The compounds of formula (I) of the disclosure are competitive with GTP and its potency is enhanced in the presence of Mn^2+.
Potency and MOA studies, including Mn^2+ sensitivity, are performed using the cGAS enzymatic assay. Dose response experiments are used to determine IC50 values under basal conditions (5 mM MgCl2, 100 μM ATP/GTP), and with the addition of physiological levels of Mn (0.2 mM) using human and mouse cGAS. Ligand optimization is driven by potency with the human enzyme; potency with mouse cGAS informs selection of an appropriate disease model for efficacy studies. Competition with ATP and GTP is assessed by comparing basal IC50 values to those in the presence of saturating ATP or GTP, and subsequently confirmed by measuring velocity vs. substrate at varying ATP or GTP levels. […]

- IC50 (full-length human cGAS; 100 μM ATP/GTP, read-out: Enzymatic FP Std (100 μM ATP/GTP)): 391 nM
- IC50 (full-length human cGAS; 1 mM ATP/GTP, read-out: Enzymatic FP Physiological (1 mM ATP/GTP)): 1920 nM
- IC50 (full-length human cGAS; 5 mM Mg2+, 0.2 mM Mn2+, read-out: IC50 (5 mM Mg^2+, 0.2 mM Mn^2+)): 48 ± 2 nM
- IC50 (full-length human cGAS; 5 mM Mg2+, no Mn2+, read-out: IC50 (5 mM Mg^2+)): 550 ± 10 nM
- IC50 (full-length human cGAS; cGAS (30 nM), no Mn2+, read-out: Inhibition cGAS (IC50 class)): 500 to 1000 nM
- IC50 (full-length human cGAS; cGAS (30 nM), with Mn2+, read-out: Inhibition cGAS + Mn^2+ (IC50 class)): < 100 nM
- MOA (full-length human cGAS; competition with substrates): GTP Competitive
- IC50 (Mouse cGAS): 93 nM
- solubility [1]: 224 µM (≈ 58.2 µg/mL)
- half-life [2]: 1.93 h
- half-life [3]: 0.355 h
- MDR-1-mediated export [4]: no indication of MDR-1-mediated export
- efflux ratio (P-glycoprotein (MDR1)): 0.5
- Papp A→B (P-glycoprotein (MDR1); A→B): 76.7 ×10⁻⁶ cm/s
- Off-Target Activity (Kinase, PDE, GTPase, ENPP1) [5]: None
- Inhibitory activity with panel of nucleotide-utilizing enzymes ([5]; at 200 μM, kinases, a GTPase, a phosphodiesterase, a nucleotidase): lack of inhibitory activity
- IC50 ([6]; read-out: Cellular IFNβ ELISA): 68000 nM
- IC50 [7]: 75000 nM
- IC50 [8]: 59000 nM
- Binding stoichiometry to cGAS (cGAS): Stoichiometric binding (1:1)
SMILES: COc1cc2c(-n3ccnc3)ccnc2cc1Cl [Compound 14, 7-chloro-4-(1H-imidazol-1-yl)-6-methoxyquinoline]
- DNA-stimulated IFNβ expression as measured by ELISA [6]: specific inhibition
- ISG expression (ISG mRNA expression): inhibition
- ISG expression (fold decrease @ 200 μM) (ISG mRNA expression; 200 μM, THP1-dual cells, 24 hours): 2-10×
